Several values for one entry are separate records, joined by “and”; a condition that tells them apart may be missing. Identical values can stand only once.

Some targets named below: BMX (Homo sapiens, UniProt P51813); CAMK2D (Homo sapiens, UniProt Q13557); CDC2 (Homo sapiens, UniProt P06493); CDK10 (Homo sapiens, UniProt Q15131).
What all share (assay): biochemical
Holding throughout (design): endogenous in cells; host or cells: K562 cell extract; species or system K562 (extract); replicate k of n = 2 (each experiment ID is one independent experiment; two experiment IDs per compound)
Common to all, as to conditions: read-out: KDapp

Another assay has as its target T1, IKBKE (Homo sapiens, UniProt Q14164).
T1 sequence (Q14164 1-716): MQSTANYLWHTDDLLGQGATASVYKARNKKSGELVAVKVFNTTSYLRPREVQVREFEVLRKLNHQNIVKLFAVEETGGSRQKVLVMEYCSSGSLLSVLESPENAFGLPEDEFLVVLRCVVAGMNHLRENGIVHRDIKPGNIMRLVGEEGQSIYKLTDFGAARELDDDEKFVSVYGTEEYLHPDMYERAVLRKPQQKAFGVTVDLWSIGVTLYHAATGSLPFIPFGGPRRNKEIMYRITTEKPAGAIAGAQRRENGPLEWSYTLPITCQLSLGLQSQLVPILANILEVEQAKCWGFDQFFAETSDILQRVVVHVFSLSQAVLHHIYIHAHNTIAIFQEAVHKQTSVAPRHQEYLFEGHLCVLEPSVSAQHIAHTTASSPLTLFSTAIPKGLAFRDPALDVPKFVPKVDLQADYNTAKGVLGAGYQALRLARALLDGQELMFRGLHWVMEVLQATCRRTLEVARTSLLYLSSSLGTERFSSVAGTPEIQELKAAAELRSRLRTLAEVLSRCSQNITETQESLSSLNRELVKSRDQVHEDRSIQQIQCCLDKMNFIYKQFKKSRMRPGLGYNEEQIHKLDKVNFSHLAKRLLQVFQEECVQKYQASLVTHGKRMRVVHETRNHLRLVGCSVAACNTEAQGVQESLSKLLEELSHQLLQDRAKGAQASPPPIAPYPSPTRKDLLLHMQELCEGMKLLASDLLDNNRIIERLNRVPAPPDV

The target in a further assay is T2, PDPK1 (Homo sapiens, UniProt O15530).
T2 sequence (O15530 1-556): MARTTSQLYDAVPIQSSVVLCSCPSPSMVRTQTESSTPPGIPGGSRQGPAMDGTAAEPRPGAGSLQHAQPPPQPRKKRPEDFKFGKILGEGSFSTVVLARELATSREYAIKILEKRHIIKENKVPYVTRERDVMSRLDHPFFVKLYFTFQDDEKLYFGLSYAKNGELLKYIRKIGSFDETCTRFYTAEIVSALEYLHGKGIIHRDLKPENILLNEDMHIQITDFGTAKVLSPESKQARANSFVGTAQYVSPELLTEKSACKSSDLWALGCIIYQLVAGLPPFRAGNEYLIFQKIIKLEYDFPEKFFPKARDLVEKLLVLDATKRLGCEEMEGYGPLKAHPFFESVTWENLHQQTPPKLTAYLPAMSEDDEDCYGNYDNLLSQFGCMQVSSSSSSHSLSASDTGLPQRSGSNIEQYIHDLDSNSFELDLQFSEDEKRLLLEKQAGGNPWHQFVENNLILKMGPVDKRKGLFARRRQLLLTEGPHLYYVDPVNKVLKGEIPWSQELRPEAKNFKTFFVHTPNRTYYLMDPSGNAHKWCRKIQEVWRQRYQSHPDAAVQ

The target in a further assay is T3, TEC (Homo sapiens, UniProt P42680).
T3 sequence (P42680 1-631): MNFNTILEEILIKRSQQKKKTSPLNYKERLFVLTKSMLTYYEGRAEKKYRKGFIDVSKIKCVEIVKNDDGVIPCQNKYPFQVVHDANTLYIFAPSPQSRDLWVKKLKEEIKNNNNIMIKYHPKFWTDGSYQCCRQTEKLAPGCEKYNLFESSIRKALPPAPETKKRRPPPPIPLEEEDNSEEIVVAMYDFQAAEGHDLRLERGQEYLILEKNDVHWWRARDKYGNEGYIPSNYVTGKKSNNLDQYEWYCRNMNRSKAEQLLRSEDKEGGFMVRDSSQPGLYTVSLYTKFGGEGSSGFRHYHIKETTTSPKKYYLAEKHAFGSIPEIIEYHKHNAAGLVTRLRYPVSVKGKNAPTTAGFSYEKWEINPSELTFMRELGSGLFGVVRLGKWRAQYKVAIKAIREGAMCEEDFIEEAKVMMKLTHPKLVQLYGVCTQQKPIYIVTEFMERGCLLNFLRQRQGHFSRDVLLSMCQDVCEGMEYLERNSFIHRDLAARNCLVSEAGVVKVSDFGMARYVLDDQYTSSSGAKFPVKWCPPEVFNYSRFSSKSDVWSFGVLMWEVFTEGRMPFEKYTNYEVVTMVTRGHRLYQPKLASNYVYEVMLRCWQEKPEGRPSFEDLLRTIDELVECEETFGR

CAMK2D, sequence (Q13557 whole entry): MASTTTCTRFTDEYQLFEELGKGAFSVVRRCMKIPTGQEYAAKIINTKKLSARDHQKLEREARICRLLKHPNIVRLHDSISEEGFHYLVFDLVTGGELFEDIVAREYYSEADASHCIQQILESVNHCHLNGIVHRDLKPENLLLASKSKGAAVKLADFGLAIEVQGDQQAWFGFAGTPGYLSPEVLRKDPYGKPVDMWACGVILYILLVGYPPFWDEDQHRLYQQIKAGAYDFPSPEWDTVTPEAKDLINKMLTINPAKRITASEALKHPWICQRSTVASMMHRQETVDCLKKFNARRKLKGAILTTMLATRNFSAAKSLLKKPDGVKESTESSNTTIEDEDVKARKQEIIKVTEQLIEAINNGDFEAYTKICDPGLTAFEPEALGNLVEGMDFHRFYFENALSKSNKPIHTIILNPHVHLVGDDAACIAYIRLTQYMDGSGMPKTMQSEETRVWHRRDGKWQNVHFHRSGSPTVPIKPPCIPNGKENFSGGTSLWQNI
BMX, sequence (P51813 whole entry): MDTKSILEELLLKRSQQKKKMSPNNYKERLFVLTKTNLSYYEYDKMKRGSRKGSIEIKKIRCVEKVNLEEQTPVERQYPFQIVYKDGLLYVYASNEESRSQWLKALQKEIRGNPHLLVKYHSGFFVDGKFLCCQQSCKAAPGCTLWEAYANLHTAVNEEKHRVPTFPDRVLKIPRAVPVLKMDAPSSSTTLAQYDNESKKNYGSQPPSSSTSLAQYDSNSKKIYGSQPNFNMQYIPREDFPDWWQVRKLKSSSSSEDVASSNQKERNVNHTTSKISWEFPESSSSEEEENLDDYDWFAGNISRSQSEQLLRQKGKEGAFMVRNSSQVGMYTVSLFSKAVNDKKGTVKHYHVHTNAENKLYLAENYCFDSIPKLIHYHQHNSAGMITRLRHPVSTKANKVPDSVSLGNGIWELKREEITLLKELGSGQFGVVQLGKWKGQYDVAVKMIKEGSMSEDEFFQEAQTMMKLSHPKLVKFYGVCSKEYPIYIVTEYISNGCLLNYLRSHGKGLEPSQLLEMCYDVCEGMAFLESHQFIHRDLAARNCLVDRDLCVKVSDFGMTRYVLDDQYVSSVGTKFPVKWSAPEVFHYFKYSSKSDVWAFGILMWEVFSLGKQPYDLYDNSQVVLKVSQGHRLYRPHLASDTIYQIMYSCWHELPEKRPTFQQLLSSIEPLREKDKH
CDK10, sequence (Q15131 whole entry): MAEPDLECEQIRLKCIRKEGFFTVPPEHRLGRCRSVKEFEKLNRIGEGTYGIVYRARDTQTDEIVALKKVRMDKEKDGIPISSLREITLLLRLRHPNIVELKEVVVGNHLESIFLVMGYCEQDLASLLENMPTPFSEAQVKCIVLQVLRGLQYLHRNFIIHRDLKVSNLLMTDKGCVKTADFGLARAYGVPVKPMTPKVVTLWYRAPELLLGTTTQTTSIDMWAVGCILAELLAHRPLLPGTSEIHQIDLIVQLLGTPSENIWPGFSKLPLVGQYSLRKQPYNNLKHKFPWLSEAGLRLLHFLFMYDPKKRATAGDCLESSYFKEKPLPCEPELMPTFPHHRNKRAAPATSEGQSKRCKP
CDC2, sequence (P06493 whole entry): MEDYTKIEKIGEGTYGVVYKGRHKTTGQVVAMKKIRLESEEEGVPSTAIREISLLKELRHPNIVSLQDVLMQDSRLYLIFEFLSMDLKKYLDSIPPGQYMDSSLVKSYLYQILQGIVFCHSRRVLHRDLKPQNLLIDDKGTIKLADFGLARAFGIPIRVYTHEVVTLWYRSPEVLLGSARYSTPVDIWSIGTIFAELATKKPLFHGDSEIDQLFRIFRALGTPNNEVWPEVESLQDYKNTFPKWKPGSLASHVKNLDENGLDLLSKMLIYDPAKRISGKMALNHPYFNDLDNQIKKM

In the case of `CN1CCN(c2ccc(Nc3ncc(C#N)c(Nc4ccccc4C(N)=O)n3)cc2)CC1.Cl` [TCMDC-134116], the Kd on BMX was 285 nM; at CAMK2D it was 323 nM and 163 nM; on CDC2, 1210 nM; on IKBKE it was 954 nM; at PDPK1, 605 nM and 503 nM; on TEC, 137 nM and 146 nM.

As for `CN(C)CC(O)COc1ccc(Nc2ncc([N+](=O)[O-])c(Nc3ccccc3O)n2)cc1.O=C(O)C(F)(F)F` (stereo not shown) [TCMDC-141399], at CDK10, the Kd stood at 630 nM.

(Values after article PMC4774911, “Biochemical Screening of Five Protein Kinases from Plasmodium falciparum against 14,000 Cell-Active Compounds” (PLoS ONE, 2016).)
